Laboratory results taken from patent publication US20120225062A1 (priority 2011, published 2012).

How the values were obtained:
[1] = biological target: Pim 1 (Homo sapiens, UniProt P11309); assay: Pim 1 AlphaScreen assay (high ATP)
Description: The activity of Pim 1, Pim 2, & Pim 3 is measured using a homogeneous bead based system quantifying the amount of phosphorylated peptide substrate resulting from kinase-catalyzed phosphoryl transfer to a peptide substrate. Compounds to be tested are dissolved in 100% DMSO and directly distributed to a white 384-well plate at 0.25 μl per well. […] This is followed by the addition of 5 μl/well of Pim 1, Pim 2 or Pim 3 kinase in assay buffer (concentrations described below). Final assay concentrations (described below) are in 2.5% DMSO. The reactions are performed for ˜2 hours, then stopped by the addition of 10 μl of 0.75 μg/ml anti-phospho Ser/Thr antibody (Cell Signaling), 10 μg/ml Protein A AlphaScreen beads (Perkin Elmer), and 10 μg/ml streptavidin coated AlphaScreen beads in stop/detection buffer (50 mM EDTA, 95 mM Tris, pH=7.5, 0.01% Tween-20). The stopped reactions are incubated overnight in the dark. The phosphorylated peptide is detected via an oxygen anion initiated chemiluminescence/fluorescence cascade using the Envision plate reader (Perkin Elmer).

[2] = biological target: Pim 2 (Homo sapiens, UniProt Q9P1W9); assay: Pim 2 AlphaScreen assay (high ATP)
[3] = biological target: Pim 3 (Homo sapiens, UniProt Q86V86); assay: Pim 3 AlphaScreen assay (high ATP)

Chain of Pim 2 (Q9P1W9 whole entry): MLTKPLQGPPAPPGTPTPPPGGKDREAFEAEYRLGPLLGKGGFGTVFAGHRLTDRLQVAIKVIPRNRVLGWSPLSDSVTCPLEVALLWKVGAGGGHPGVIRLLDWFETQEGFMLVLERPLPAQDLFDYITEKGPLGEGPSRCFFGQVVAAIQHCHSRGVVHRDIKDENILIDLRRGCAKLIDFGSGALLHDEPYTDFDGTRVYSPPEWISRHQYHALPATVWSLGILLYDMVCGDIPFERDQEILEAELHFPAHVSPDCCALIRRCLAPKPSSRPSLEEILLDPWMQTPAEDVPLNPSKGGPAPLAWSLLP
Chain of Pim 1 (P11309 whole entry): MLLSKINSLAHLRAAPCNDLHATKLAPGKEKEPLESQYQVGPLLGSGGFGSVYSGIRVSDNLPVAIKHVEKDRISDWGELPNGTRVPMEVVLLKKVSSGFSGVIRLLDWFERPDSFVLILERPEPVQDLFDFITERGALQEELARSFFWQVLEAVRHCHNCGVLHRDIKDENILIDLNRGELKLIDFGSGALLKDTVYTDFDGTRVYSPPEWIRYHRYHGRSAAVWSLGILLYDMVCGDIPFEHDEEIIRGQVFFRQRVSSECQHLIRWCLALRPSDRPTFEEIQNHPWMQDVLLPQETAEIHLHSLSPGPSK

Structure (SMILES)	IC50 [1] [nM]	IC50 [2] [nM]	IC50 [3] [nM]
COC1(c2cc(F)c(-c3nc(C(=O)Nc4cnccc4N4C[C@@H](N)[C@H](O)[C@@H](C)C4)c(N)cc3F)c(F)c2)COC1 [Example 112, 3-amino-N-(4-((3R,4R,5S)-3-amino-4-hydroxy-5-methylpiperidin-1-yl)pyridin-3-yl)-6-(2,6-difluoro-4-(3-methoxyoxetan-3-yl)phenyl)-5-fluoropicolinamide]	0.01	0.48	0.21
CCOc1cc(F)c(-c2nc(C(=O)Nc3cnccc3[C@@H]3C[C@H](C)C[C@H](N)C3)ccc2F)c(F)c1 [Example 225, N-(4-((1R,3S,5S)-3-amino-5-methylcyclohexyl)pyridin-3-yl)-6-(4-ethoxy-2,6-difluorophenyl)-5-fluoropicolinamide]	0.02	1.78	0.51
COCCOc1cc(F)c(-c2nc(C(=O)Nc3cnccc3[C@@H]3C[C@H](C)C[C@H](N)C3)c(N)cc2F)c(F)c1 [Example 118, 3-amino-N-(4-((1R,3S,5S)-3-amino-5-methylcyclohexyl)pyridin-3-yl)-6-(2,6-difluoro-4-(2-methoxyethoxy)phenyl)-5-fluoropicolinamide]	0.01	1.08	0.29
CC(C)[C@@H]1C[C@H](N)C[C@H](c2ccncc2NC(=O)c2ccc(F)c(-c3c(F)cc(OC4CCOCC4)cc3F)n2)C1 [Example 110, N-(4-((1R,3S,5S)-3-amino-5-isopropylcyclohexyl)pyridin-3-yl)-6-(2,6-difluoro-4-(tetrahydro-2H-pyran-4-yloxy)phenyl)-5-fluoropicolinamide]	0.01	0.95	0.25
COC(C)(C)c1cc(F)c(-c2nc(C(=O)Nc3cnccc3[C@H]3C[C@@H](N)[C@H](O)[C@@H](C)C3)c(N)cc2F)c(F)c1 [Example 114, 3-amino-N-(4-((1R,3R,4R,5S)-3-amino-4-hydroxy-5-methylcyclohexyl)pyridin-3-yl)-6-(2,6-difluoro-4-(2-methoxypropan-2-yl)phenyl)-5-fluoropicolinamide]	0.04	1.37	1.29
COC(C)(C)c1cc(F)c(-c2nc(C(=O)Nc3cnccc3[C@@H]3C[C@H](C)C[C@H](N)C3)c(N)cc2F)c(F)c1 [Example 113, 3-amino-N-(4-((1R,3S,5S)-3-amino-5-methylcyclohexyl)pyridin-3-yl)-6-(2,6-difluoro-4-(2-methoxypropan-2-yl)phenyl)-5-fluoropicolinamide]	0.02	1.51	0.73
CC(C)[C@@H]1C[C@H](N)C[C@H](c2ccncc2NC(=O)c2ccc(F)c(-c3c(F)cc(C4(O)COC4)cc3F)n2)C1 [Example 111, N-(4-((1R,3S,5S)-3-amino-5-isopropylcyclohexyl)pyridin-3-yl)-6-(2,6-difluoro-4-(3-hydroxyoxetan-3-yl)phenyl)-5-fluoropicolinamide]	0.01	0.76	0.61
C[C@H]1CN(c2ccncc2NC(=O)c2nc(-c3c(F)cc(OC4CCOCC4)cc3F)c(F)cc2N)C[C@@H](N)[C@@H]1O [Example 115, 3-amino-N-(4-((3R,4R,5S)-3-amino-4-hydroxy-5-methylpiperidin-1-yl)pyridin-3-yl)-6-(2,6-difluoro-4-(tetrahydro-2H-pyran-4-yloxy)phenyl)-5-fluoropicolinamide]	0.01	0.66	0.12
C[C@@H]1C[C@H](N)C[C@H](c2ccncc2NC(=O)c2ccc(F)c(-c3c(F)cc(OC[C@H](O)CO)cc3F)n2)C1 [Example 2, N-(4-((1R,3S,5S)-3-amino-5-methylcyclohexyl)pyridin-3-yl)-6-(4-((R)-2,3-dihydroxypropoxy)-2,6-difluorophenyl)-5-fluoropicolinamide]	0.01	2.99	0.57
